From patent US6849405B2, “Translation enhancer element of the human amyloid precursor protein gene” (The Brigham and Women's Hospital, Inc., priority 1997, dated 2005)

Key:
[1] = system: APP protein synthesis in primary human fetal astrocytes; test: Intracellular APP protein synthesis, [35S]-methionine pulse labeling and immunoprecipitation, primary astrocytes; type: cell-based; details: 0.5 ng/ml, 16 hours, 30 minute [35S]-methionine labeling
Method: Primary human astrocytes were prepared by trypsinization of human fetal brain tissue by a previously described method (Das, et al., Neuron 14; 447 (1995)). Cells were seeded onto poly-L-lysine (10 μg/ml) coated plates and were grown to 70% confluence in DMEM medium, (low glucose) supplemented with 10% fetal bovine serum. In order to eliminate microglia, the cultures were treated with 5 mM H-Leu-O-methylester (Guilian, J. Neurosci. Res. 18:155 (1987)). For immunofluorescence, cells were replated at a density of 100,000 cells per 60-mm petri dish on poly-L-lysine coated glass coverslips and grown for 24 hours in 0.5 ml of medium to allow the cells to attach. The presence of glial fibrillary acidic protein (GFAP) was detected by immunofluorescent staining of formaldehyde fixed cells using a 1:10 dilution of rabbit IgG1 antibody specific for human GFAP. Primary GFAP-specific antibody was added to the coverslips for 30 minutes at room temperature in phosphate buffered saline and 10% goat serum. […] Fluorescence microscopy scored the cells used in the metabolic experiments as 95% pure astrocytes. […]
Intracellular APP protein synthesis was determined in primary astrocytes after plating cells in equal numbers into 8 microtiter wells prior to each treatment (1×10^5 cells per well in 96 well dishes). […]

[2] = system: APP(s) secretion from primary human astrocytes; test: Secretion of APP(s) (protease-nexin II) into medium from primary astrocytes; type: cell-based; details: 2 hour pulse labeling
Method: Secretion and labeling of APP(s) (protease-nexin-2) from primary astrocytes by IL-1 was measured in a separate set of experiments. Medium from 100 mm dishes (10 ml) of astrocyte cultures was collected after a 2-hour pulse labeling with 200 μCi/ml [^35S]-methionine. APP in 5 ml of precleared medium was immunoprecipitated using a 1:1500 dilution of rabbit polyclonal serum specific for amino acids 595-611 of APP (R1736, D. Selko). Apolipoprotein E was immunoprecipitated from 5 ml of culture supernatant using a 1:200 dilution of a polyclonal antiserum (Chemicon).
In all labeling experiments, immunoprecipitated protein was collected by the binding of antibody-labeled antigen complexes to Protein A Sepharose™ beads. Immunoprecipitated samples were applied to 10-20% tris-tricine gels (Novex) and the samples were electrophoresed in tris-tricine buffer according to the manufacturer's instructions. The gels were fixed with 25% methanol, […] for 1 hour, treated with fluorographic reagent (Amplify, Amersham) for 30 minutes, dried, and exposed to X-omat Kodak film overnight at −80° C.

APP-mRNA [3] = test: Northern blot of APP-mRNA, primary astrocytes; type: cell-based, human
Method: (§1) Total RNA (10 μg) was extracted from primary astrocytes and astrocytoma cells with a RNA-STAT kit (Tel-Test). RNA samples were denatured in 50% formamide/2.2 M formaldehyde/20 mM MOPS/5 mM sodium acetate/0.5 mM EDTA, pH 7.4, at 60° C. for 10 minutes, electrophoresed on 1.0% agarose-formaldehyde gels, blotted onto Hybond-N filters and immobilized by UV crosslinking and heating filters to 80° C. Filters were prehybridized for 3 hours and hybridized overnight in a solution consisting of 50% formamide, […] denatured salmon sperm DNA, 5×SSC, 0.1% sodium dodecyl sulfate and 5×Denhardt's solution. Following hybridization, filters were washed twice for a total of 1 hour in 2×SSC/0.2% sodium dodecyl sulfate at room temperature and twice each for a total of 1 hour in 0.5×SSC/0.1% sodium dodecyl sulfate at 55° C. Equal loading was verified by ethidium bromide staining, non-specific hybridization of the ACT probe to the 28S rRNA, and by standardized hybridization to the GAPDH cDNA probe as an internal standard. The APP cDNA probe corresponded to the unique internal 1 kb fragment gel purified from the 3 kb APP cDNA (Kang et al. Nature 325: 733 (1987)), the ACT cRNA probe to a PstI/SacI fragment (536-943) in the human ACT cDNA (Chandra, et al., Biochemistry 22: 5055 (1983)) and the GAPDH probe to the human GAPDH gene (Tokunaga, et al., Cancer Res. 47: 5616 (1987)).

[4] = system: APP synthesis in human astrocytoma (U373MG) cells; test: APP synthesis, [35S]-methionine labeling and immunoprecipitation, astrocytoma cells; type: cell-based; details: 0.5 ng/ml, 16 hrs, maximal
Method: Primary human astrocytes were prepared by trypsinization of human fetal brain tissue by a previously described method (Das, et al., Neuron 14; 447 (1995)). Cells were seeded onto poly-L-lysine (10 μg/ml) coated plates and were grown to 70% confluence in DMEM medium, (low glucose) supplemented with 10% fetal bovine serum. In order to eliminate microglia, the cultures were treated with 5 mM H-Leu-O-methylester (Guilian, J. Neurosci. Res. 18:155 (1987)). For immunofluorescence, cells were replated at a density of 100,000 cells per 60-mm petri dish on poly-L-lysine coated glass coverslips and grown for 24 hours in 0.5 ml of medium to allow the cells to attach. The presence of glial fibrillary acidic protein (GFAP) was detected by immunofluorescent staining of formaldehyde fixed cells using a 1:10 dilution of rabbit IgG1 antibody specific for human GFAP. Primary GFAP-specific antibody was added to the coverslips for 30 minutes at room temperature in phosphate buffered saline and 10% goat serum. The secondary antibodies used were goat anti-rabbit IgG conjugated to fluorescein isothiocyanate at a dilution of 1:100 (Boehringer). Fluorescence microscopy scored the cells used in the metabolic experiments as 95% pure astrocytes. […] The U373MG astrocytoma cell line was cultured on 100 mm uncoated dishes to 60-80% confluence in DMEM medium supplemented with 10% fetal bovine serum. […]

APP-mRNA [5] = test: Northern blot of APP-mRNA, astrocytoma cells; type: cell-based, human; details: average of four Northern blot experiments
Method: as §1

Substance	increase in the synthesis of intracellular APP [1] [fold]	increased accumulation of APP(s) ([2]; medium) [%]	APP-mRNA levels (Northern blot, densitometry) (APP-mRNA [3])	increase in rate of APP synthesis [4] [fold]	enhanced secretion of APP(s) into the medium [2] [fold]	increase in steady-state levels of APP-mRNAs standardized to GAPDH-mRNA (APP-mRNA [5]) [%]
interleukin-1α [IL-1α]	4	50	unchanged	2.8		
interleukin-1β [IL-1β]	3			4.3	1.8	30
